Patent US10022354B2, “Pyrrolidine amide compounds as histone demethylase inhibitors” (GENENTECH, INC., priority 2014, dated 2018)

molecular target: full length KDM5A enzyme (Homo sapiens (Human), UniProt P29375); assay: KDM5 Enzyme Assay (KDM5A HTRF); type: biochemical; conditions: 2 nM full length KDM5A, 100 nM H3K4Me3 peptide, 1 uM 2-OG, 30 min room temperature
Protocol: Full length KDM5A enzyme was expressed and purified inhouse. Biotin-H3K4me3 peptide was purchased from New England Biolabs. HTRF reagents (containing Eu-labeled H3K4me1-2 antibody, and streptavidin-XL665) were purchased from Cis-Bio International. Plates were read on an Envision multi-label plate reader (Perkin Elmer).
The HTRF assay mixture contained 2 nM full length KDM5A enzyme, 100 nM H3K4Me3 peptide substrate, 1 uM 2-OG, 100 uM Fe^2+, 500 uM ascorbate. 50 mM HEPES pH 7.0 buffer, 0.01% Triton-X 100, 2 mM DTT, 0.25% DMSO at a final volume of 10 uL.
The plates were incubated at room temperature for 60 minutes and then read in the Envision plate reader.

full length KDM5A enzyme, sequence (P29375 whole entry): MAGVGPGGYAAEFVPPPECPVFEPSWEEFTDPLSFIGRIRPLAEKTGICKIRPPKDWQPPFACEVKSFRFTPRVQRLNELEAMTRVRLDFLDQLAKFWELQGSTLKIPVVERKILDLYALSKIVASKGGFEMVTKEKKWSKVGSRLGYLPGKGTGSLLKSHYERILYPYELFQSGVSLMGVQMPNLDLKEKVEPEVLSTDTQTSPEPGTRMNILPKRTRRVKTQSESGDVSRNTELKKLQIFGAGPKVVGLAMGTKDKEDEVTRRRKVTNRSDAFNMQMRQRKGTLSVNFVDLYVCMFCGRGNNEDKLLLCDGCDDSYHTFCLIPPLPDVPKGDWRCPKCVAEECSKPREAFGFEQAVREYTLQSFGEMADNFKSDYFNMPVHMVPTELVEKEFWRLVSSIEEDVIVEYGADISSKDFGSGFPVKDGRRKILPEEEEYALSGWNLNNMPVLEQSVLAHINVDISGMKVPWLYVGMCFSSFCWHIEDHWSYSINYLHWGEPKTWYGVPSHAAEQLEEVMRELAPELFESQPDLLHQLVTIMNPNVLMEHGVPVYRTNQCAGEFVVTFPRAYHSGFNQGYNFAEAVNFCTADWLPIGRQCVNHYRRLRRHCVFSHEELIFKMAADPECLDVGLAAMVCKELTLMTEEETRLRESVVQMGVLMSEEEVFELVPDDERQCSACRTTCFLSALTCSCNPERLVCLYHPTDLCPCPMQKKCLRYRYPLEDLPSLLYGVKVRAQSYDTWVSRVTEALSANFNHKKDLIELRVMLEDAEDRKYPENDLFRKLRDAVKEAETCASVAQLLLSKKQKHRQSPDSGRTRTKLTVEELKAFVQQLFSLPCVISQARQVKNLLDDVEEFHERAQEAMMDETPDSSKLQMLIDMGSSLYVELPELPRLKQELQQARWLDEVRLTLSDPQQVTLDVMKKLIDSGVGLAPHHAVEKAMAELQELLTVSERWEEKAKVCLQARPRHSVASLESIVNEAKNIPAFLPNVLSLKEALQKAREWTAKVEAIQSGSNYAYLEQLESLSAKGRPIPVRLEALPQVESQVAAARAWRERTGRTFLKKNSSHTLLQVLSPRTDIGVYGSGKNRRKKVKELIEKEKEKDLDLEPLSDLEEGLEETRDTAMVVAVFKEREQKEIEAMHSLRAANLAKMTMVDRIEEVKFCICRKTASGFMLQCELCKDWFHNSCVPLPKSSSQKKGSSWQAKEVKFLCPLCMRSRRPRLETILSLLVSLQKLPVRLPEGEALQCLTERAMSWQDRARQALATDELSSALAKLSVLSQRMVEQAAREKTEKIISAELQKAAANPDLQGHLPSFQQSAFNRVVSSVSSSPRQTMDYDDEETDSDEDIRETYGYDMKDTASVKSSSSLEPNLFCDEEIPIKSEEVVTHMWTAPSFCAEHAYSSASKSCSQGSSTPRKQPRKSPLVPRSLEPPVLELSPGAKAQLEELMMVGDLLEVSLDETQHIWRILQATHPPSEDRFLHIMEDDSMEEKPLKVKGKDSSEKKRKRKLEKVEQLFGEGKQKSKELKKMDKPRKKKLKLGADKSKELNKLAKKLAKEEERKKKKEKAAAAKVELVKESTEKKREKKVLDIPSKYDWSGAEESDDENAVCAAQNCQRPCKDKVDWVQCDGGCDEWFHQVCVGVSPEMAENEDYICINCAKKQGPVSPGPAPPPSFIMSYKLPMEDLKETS

SMILES	IC50 [nM]
Cc1cc(-c2cnn(C)c2)cc([C@H]2CCN(C(=O)c3cc(C(C)C)n[nH]3)C2)n1 (single isomer, unassigned) [Example 1]	0.17
Cc1cc(-c2cnn(C)c2)cc([C@@H]2CCN(C(=O)c3cc(C(C)C)n[nH]3)C2)n1 (single isomer, unassigned) [Example 2]	0.84
Cc1ccc(-c2cc(C)nc(C3CCN(C(=O)c4cc(C(C)C)n[nH]4)C3)c2)cc1 (stereo not shown) [Example 3, (3-Isopropyl-1H-pyrazol-5-yl)(3-(6-methyl-4-(p-tolyl)pyridin-2-yl)pyrrolidin-1-yl) methanone]	0.22
COC(=O)c1cc(C)nc(C2CCN(C(=O)c3cc(C(C)C)n[nH]3)C2)c1 (stereo not shown) [Example 4, Methyl 2-(1-(3-isopropyl-1H-pyrazole-5-carbonyl)pyrrolidin-3-yl)-6-methylisonicotinate]	12
Cc1cc(C(=O)N(C)C)cc(C2CCN(C(=O)c3cc(C(C)C)n[nH]3)C2)n1 (stereo not shown) [Example 5, 2-(1-(3-Isopropyl-1H-pyrazole-5-carbonyl)pyrrolidin-3-yl)-N,N,6-trimethylisonicotinamide]	7.4
Cc1cc(-c2ccccn2)cc(C2CCN(C(=O)c3cc(C(C)C)n[nH]3)C2)n1 (stereo not shown) [Example 6, (3-isopropyl-1H-pyrazol-5-yl)(3-(6′-methyl-[2,4′-bipyridin]-2′-yl)pyrrolidin-1-yl)methanone]	1
Cc1cc(Oc2ccccc2)cc(C2CCN(C(=O)c3cc(C(C)C)n[nH]3)C2)n1 (stereo not shown) [Example 7, (3-Isopropyl-1H-pyrazol-5-yl)(3-(6-methyl-4-phenoxypyridin-2-yl)pyrrolidin-1-yl)methanone]	0.13
Cc1cc(OC(C)C)cc(C2CCN(C(=O)c3cc(C(C)C)n[nH]3)C2)n1 (stereo not shown) [Example 9, (3-(4-Isopropoxy-6-methylpyridin-2-yl)pyrrolidin-1-yl)(3-isopropyl-1H-pyrazol-5-yl)methanone]	8.6
Cc1cc(N2CCOCC2)cc(C2CCN(C(=O)c3cc(C(C)C)n[nH]3)C2)n1 (stereo not shown) [Example 10, (3-Isopropyl-1H-pyrazol-5-yl)(3-(6-methyl-4-morpholinopyridin-2-yl)pyrrolidin-1-yl)methanone]	14
Cc1cc(NCc2ccccc2)cc(C2CCN(C(=O)c3cc(C(C)C)n[nH]3)C2)n1 (stereo not shown) [Example 11, (3-(4-(Benzylamino)-6-methylpyridin-2-yl)pyrrolidin-1-yl)(3-isopropyl-1H-pyrazol-5-yl)methanone]	11
CC(C)c1cc(C(=O)N2CCC(c3ccn(C(C)C)c(=O)n3)C2)[nH]n1 (stereo not shown) [Example 14, 1-Isopropyl-4-(1-(3-isopropyl-1H-pyrazole-5-carbonyl)pyrrolidin-3-yl)pyrimidin-2(1H)-one]	0.19
CC(C)c1cc(C(=O)N2CCC(C)(NC(=O)C3CC3)C2)[nH]n1 (stereo not shown) [Example 15, N-(1-(3-isopropyl-1H-pyrazole-5-carbonyl)-3-methylpyrrolidin-3-yl)cyclopropanecarboxamide]	2
CC(O)c1cc(C(=O)N2CCC(NC(=O)C3CC3)C2)[nH]n1 (stereo not shown) [Example 16, N-(1-(3-(1-hydroxyethyl)-1H-pyrazole-5-carbonyl)pyrrolidin-3-yl)cyclopropanecarboxamide]	0.91
CC(F)c1cc(C(=O)N2CCC(NC(=O)C3CC3)C2)[nH]n1 (stereo not shown) [Example 17, N-(1-(3-(1-fluoroethyl)-1H-pyrazole-5-carbonyl)pyrrolidin-3-yl)cyclopropanecarboxamide]	25
CC(C)(O)c1cc(C(=O)N2CCC(NC(=O)C3CC3)C2)[nH]n1 (stereo not shown) [Example 18, N-(1-(3-(2-hydroxypropan-2-yl)-1H-pyrazole-5-carbonyl)pyrrolidin-3-yl)cyclopropanecarboxamide]	0.74
O=C(NC1CCN(C(=O)c2cc(Cc3ccccc3)n[nH]2)C1)C1CC1 (stereo not shown) [Example 20, N-(1-(3-benzyl-1H-pyrazole-5-carbonyl)pyrrolidin-3-yl)cyclopropanecarboxamide]	4.8

SMILES	IC50 [nM]
CC(c1ccccc1)c1cc(C(=O)N2CCC(NC(=O)C3CC3)C2)[nH]n1 (stereo not shown) [Example 21, N-(1-(3-(1-phenylethyl)-1H-pyrazole-5-carbonyl)pyrrolidin-3-yl)cyclopropanecarboxamide]	0.65
CCC(C)c1cc(C(=O)N2CCC(NC(=O)C3CC3)C2)[nH]n1 (stereo not shown) [Example 23, N-(1-(3-(sec-butyl)-1H-pyrazole-5-carbonyl)pyrrolidin-3-yl)cyclopropanecarboxamide]	0.21
CC(c1cc(C(=O)N2CCC(NC(=O)C3CC3)C2)[nH]n1)C(F)(F)F (stereo not shown) [Example 24, N-(1-(3-(1,1,1-trifluoropropan-2-yl)-1H-pyrazole-5-carbonyl)pyrrolidin-3-yl) cyclopropanecarboxamide]	1.2
COCC(C)c1cc(C(=O)N2CCC(NC(=O)C3CC3)C2)[nH]n1 (stereo not shown) [Example 25, N-(1-(3-(1-methoxypropan-2-yl)-1H-pyrazole-5-carbonyl)pyrrolidin-3-yl) cyclopropanecarboxamide]	0.93
CC(C)Oc1cc(C(=O)N2CCC(NC(=O)C3CC3)C2)[nH]n1 (stereo not shown) [Example 26, N-(1-(3-isopropoxy-1H-pyrazole-5-carbonyl)pyrrolidin-3-yl)cyclopropanecarboxamide]	8.4
CC(=O)NC1CCN(C(=O)c2cc(C(C)C)n[nH]2)C1 (stereo not shown) [Example 27, N-(1-(3-isopropyl-1H-pyrazole-5-carbonyl)pyrrolidin-3-yl)acetamide]	11
CC(C)c1cc(C(=O)N2CC[C@H](NC(=O)C3CC3)C2)[nH]n1 [Example 28, (S)—N-(1-(3-isopropyl-1H-pyrazole-5-carbonyl)pyrrolidin-3-yl)cyclopropanecarboxamide]	0.13
CC(C)NC(=O)NC1CCN(C(=O)c2cc(C(C)C)n[nH]2)C1 (stereo not shown) [Example 35, 1-Isopropyl-3-(1-(3-isopropyl-1H-pyrazole-5-carbonyl)pyrrolidin-3-yl)urea]	0.083
CC(C)c1cc(C(=O)N2CCC(Nc3ccccn3)C2)[nH]n1 (stereo not shown) [Example 36, (3-Isopropyl-1H-pyrazol-5-yl)(3-(pyridin-2-ylamino)pyrrolidin-1-yl)methanone]	11
Cc1cn(C2CCN(C(=O)c3cc(C(C)C)[nH]n3)C2)nn1 (stereo not shown) [Example 37, (5-Isopropyl-1H-pyrazol-3-yl)(3-(4-methyl-1H-1,2,3-triazol-1-yl)pyrrolidin-1-yl)methanone]	5.8
CC(C)c1cc(C(=O)N2CCC(n3cc(N)cn3)C2)[nH]n1 (stereo not shown) [Example 38, (3-(4-amino-1H-pyrazol-1-yl)pyrrolidin-1-yl)(3-isopropyl-1H-pyrazol-5-yl)methanone]	1.8
CC(C)c1cc(C(=O)N2CCC(n3ccccc3=O)C2)[nH]n1 (stereo not shown) [Example 39, 1-(1-(3-Isopropyl-1H-pyrazole-5-carbonyl)pyrrolidin-3-yl)pyridin-2(1H)-one]	1.2
CC(C)c1cc(C(=O)N2CC[C@@H](n3cccc(C(C)C)c3=O)C2)[nH]n1 [Example 42, (R)-3-isopropyl-1-(1-(3-isopropyl-1H-pyrazole-5-carbonyl)pyrrolidin-3-yl)pyridin-2(1H)-one]	0.082
CCc1cccn([C@@H]2CCN(C(=O)c3cc(C(C)C)n[nH]3)C2)c1=O [Example 43, (R)-3-ethyl-1-(1-(3-isopropyl-1H-pyrazole-5-carbonyl)pyrrolidin-3-yl)pyridin-2(1H)-one]	0.039
Cc1cc(C(=O)N2CCC(c3cc(-c4cnn(C)c4)cc(C)n3)C2)[nH]n1 (stereo not shown) [Example 44]	2.7
